According to patent publication US9474814B2, “Differential evaporation potentiated disinfectant system” (XY, LLC, priority 2007, dated 2016):

Legend:
[1] = system: Staphylococcus aureus (ATCC 6538); experiment: Potentiation Assay (non-evaporative vs evaporative procedure); format: cell-based; settings: for Evaporated Log 10 Reduction: evaporated in centrifuge 60 minutes; for Non-evaporated Log 10 Reduction: set 60 minutes; for evaporative potentiation of antimicrobial efficacy: evaporative vs non-evaporative procedure, concentrations tested in water
Method: Now referring primarily to Table 5 and FIG. […] The non-evaporative and evaporative procedures included 50 μL of an overnight Staphylococcus aureus (ATCC 6538, ˜10^9 CFU/mL) culture added to each 2 mL sterile plastic vial with a conical bottom and dried without capping in a centrifuge for 30 minutes. One hundred microliters of the solution being tested was added to each vial (as triplicate vials) either let set for 60 minutes (non-evaporative) or evaporated in a centrifuge for 60 minutes (evaporative), with time to evaporate being determined by each DAA mixtures own evaporative characteristic. To the non-evaporated vials, 400 μL Mueller Hinton Broth (MHB) was added to the vial and 100 μL was plated onto Nutrient agar (NA). To the evaporated vials, 500 μL of MHB was added and 100 μL was plated onto NA. Plates were incubated overnight at ˜37° C. and counted (the “Potentiation Assay”).

[2] = Relative evaporation rates; format: physicochemical; settings: BuAc (reference) = 1.00
Text: Line C represents the change in fluid volume of a 20% (v/v) solution of diacetone alcohol in water caused by evaporation (a particular embodiment of the inventive differential evaporation antimicrobial composition), while line D represents the change in fluid phase concentration of the same 20% (v/v) diacetone alcohol in water occurring during the same fluid volume change. In this case, complete evaporation can occur in approximately 75 time units. Comparatively, the 20% (v/v) diacetone alcohol in water can be engaged with a population of microorganisms for a greater duration of time than the conventional antimicrobial composition without reapplication of an additional amount because evaporation occurs at a slower rate as shown by Table 3.

[3] = neat substance; BuAc (reference) = 1.00; cited from earlier work
[4] = Table 1; cited from earlier work
[5] = flash point; cited from earlier work
[6] = 5% v/v active component, 95% water
[7] = 10% v/v active component, 90% water
[8] = 15% v/v active component, 85% water

Row | Structure (SMILES) | Evaporated Log 10 Reduction [1, 6] | Non-evaporated Log 10 Reduction [1, 6] | Evaporated Log 10 Reduction [1, 7] | Non-evaporated Log 10 Reduction [1, 7] | Evaporated Log 10 Reduction [1, 8] | Non-evaporated Log 10 Reduction [1, 8] | evaporative potentiation of antimicrobial efficacy [1] | also measured
1 | CN(C)CCO [DMEA, 2-dimethylaminoethanol] | XX (denotes a plate where the number of colonies represented less than 10% of the number of colonies counted in the corresponding positive control plate, representing a significant reduction of the number of microorganisms (>3 Log10 reduction).) | ---0--- (denotes a plate where the numbers of colonies represented more than 50% of the number of colonies counted in the corresponding positive control plate, representing no significant reduction in the population of viable microorganisms (0 to 1 Log10 reduction).) | XXx (denotes a plate where the number of colonies represented less than 1% of the number of colonies counted in the corresponding positive control plate, representing nearly complete reduction of the number of microorganisms (>4 Log10 reduction).) | ---0--- (denotes a plate where the numbers of colonies represented more than 50% of the number of colonies counted in the corresponding positive control plate, representing no significant reduction in the population of viable microorganisms (0 to 1 Log10 reduction).) | XXx (denotes a plate where the number of colonies represented less than 1% of the number of colonies counted in the corresponding positive control plate, representing nearly complete reduction of the number of microorganisms (>4 Log10 reduction).) | ---0--- (denotes a plate where the numbers of colonies represented more than 50% of the number of colonies counted in the corresponding positive control plate, representing no significant reduction in the population of viable microorganisms (0 to 1 Log10 reduction).) | – | –
2 | CC(=O)OCCOC(C)=O [EGDA, ethylene glycol diethyl ester] | ---0--- (denotes a plate where the numbers of colonies represented more than 50% of the number of colonies counted in the corresponding positive control plate, representing no significant reduction in the population of viable microorganisms (0 to 1 Log10 reduction).) | ---0--- (denotes a plate where the numbers of colonies represented more than 50% of the number of colonies counted in the corresponding positive control plate, representing no significant reduction in the population of viable microorganisms (0 to 1 Log10 reduction).) | XX (denotes a plate where the number of colonies represented less than 10% of the number of colonies counted in the corresponding positive control plate, representing a significant reduction of the number of microorganisms (>3 Log10 reduction).) | ---0--- (denotes a plate where the numbers of colonies represented more than 50% of the number of colonies counted in the corresponding positive control plate, representing no significant reduction in the population of viable microorganisms (0 to 1 Log10 reduction).) | XX (denotes a plate where the number of colonies represented less than 10% of the number of colonies counted in the corresponding positive control plate, representing a significant reduction of the number of microorganisms (>3 Log10 reduction).) | ---0--- (denotes a plate where the numbers of colonies represented more than 50% of the number of colonies counted in the corresponding positive control plate, representing no significant reduction in the population of viable microorganisms (0 to 1 Log10 reduction).) | can be potentiated by evaporation | –
3 | CCCCOCCO [EGMBE, ethylene glycol monobutyl ether] | – | – | – | – | – | – | can be potentiated by evaporation | Relative Evaporation Rates (estimated) ([2]; 10% (v/v)): 0.33; Relative Evaporation Rates (estimated) ([2]; 20% (v/v)): 0.30; Relative Evaporation Rates [3]: 0.06
4 | COCCOC(C)=O [EGMEA, ethylene glycol monomethyl ether acetate] | ---0--- (denotes a plate where the numbers of colonies represented more than 50% of the number of colonies counted in the corresponding positive control plate, representing no significant reduction in the population of viable microorganisms (0 to 1 Log10 reduction).) | ---0--- (denotes a plate where the numbers of colonies represented more than 50% of the number of colonies counted in the corresponding positive control plate, representing no significant reduction in the population of viable microorganisms (0 to 1 Log10 reduction).) | ---0--- (denotes a plate where the numbers of colonies represented more than 50% of the number of colonies counted in the corresponding positive control plate, representing no significant reduction in the population of viable microorganisms (0 to 1 Log10 reduction).) | ---0--- (denotes a plate where the numbers of colonies represented more than 50% of the number of colonies counted in the corresponding positive control plate, representing no significant reduction in the population of viable microorganisms (0 to 1 Log10 reduction).) | XX (denotes a plate where the number of colonies represented less than 10% of the number of colonies counted in the corresponding positive control plate, representing a significant reduction of the number of microorganisms (>3 Log10 reduction).) | ---0--- (denotes a plate where the numbers of colonies represented more than 50% of the number of colonies counted in the corresponding positive control plate, representing no significant reduction in the population of viable microorganisms (0 to 1 Log10 reduction).) | can be potentiated by evaporation | –
5 | CCO [Ethanol, reference compound] | – | – | – | – | – | – | – | Azeotrope with Water % v/v [4]: 94% v/v; Azeotrope with Water % w/w [4]: 95% w/w; FP [5]: 22 °C
6 | CCC(C)=NO [MEKO, 2-butanone oxime] | – | – | XXX (denotes a plate in which zero colonies were present, representing complete reduction of the number of microorganisms (>5 Log10 reduction).) | XXX (denotes a plate in which zero colonies were present, representing complete reduction of the number of microorganisms (>5 Log10 reduction).) | XXX (denotes a plate in which zero colonies were present, representing complete reduction of the number of microorganisms (>5 Log10 reduction).) | XXX (denotes a plate in which zero colonies were present, representing complete reduction of the number of microorganisms (>5 Log10 reduction).) | can be potentiated by evaporation | –
7 | CO [Methanol] | – | – | – | – | – | – | – | FP [5]: 11 °C
8 | O [water] | – | – | – | – | – | – | – | Relative Evaporation Rates [3]: 0.36
